Results on 26 compounds are retold here after patent US5861400A, “Pharmaceutical compounds” (Xenova Limited, priority 1994, dated 1999).

Format in all cases: cell-based, mouse
Data set [1] has as its system AR 1.0 cells. As to the kind of experiment: Drug accumulation assay (tritiated daunorubicin, AR 1.0 cells). The following applies: for Emax / MAX accumulation (% 100 μm VRP): 100% = accumulation with 100 μM Verapamil, compounds 100 nM to 100 μM; for Emax: read-out: MAX accumulation (% 100 μm VRP); for IC50: daunorubicin accumulation, 37° C., DNR 2 μM. As to the method:
(§1) The EMT6 mouse mammary carcinoma cell line and the MDR resistant subline AR 1.0 were cultured in RPMI 1640 medium containing 10% foetal calf serum and 2mM glutamine at 37° C. in 5% CO2. Cells were passaged between 1 in 200 and 1 in 2000 in the case of the parental cell line and between 1 in 20 and 1 in 200 in the case of the MDR resistant subline, after trypsinisation (0.25% trypsin, 0.2 gl^-1, EDTA).
1. Drug accumulation assay
AR 1.0 cells were seeded into 96 well opaque culture plates (Canberra Packard). The assay medium contained a mixture of tritiated Daunorubicin (DNR), a cytotoxic agent, and unlabelled DNR (0.25μ Ci/ml; 2 μM). Compounds of formula A were serially diluted in assay medium over a range of concentrations from 100 nM to 100 μM. The cells were incubated at 37° C. for 1 hr before washing and counting of cell associated radioactivity. Each assay included a titration of the known resistance modifying agent Verapamil as positive control. Results were expressed as % maximum accumulation where 100% accumulation is that observed in the presence of 100 μM Verapamil.

The test system of data set [2] is AR 1.0 cells. In words: Proliferation/toxicity assay, compound alone and with cytotoxic agent (sulphorhodamine B).
The test system of data set [3] is AR 1.0 cells. In words: Potentiation of Doxorubicin toxicity (potentiation index, AR 1.0 cells). The following applies: doxorubicin 0.5 nM-50 μM, four days; for Potentiation Index (at 5 μM): Conc Comp 5 μM; for Potentiation Index: Conc Comp 3 μM. As to the method: as §1
2. Potentiation of Doxorubicin toxicity
Compounds of formula A were examined for their ability to potentiate the toxicity of doxorubicin in AR 1.0 cells. In initial proliferation assays compounds were titrated against a fixed concentration of doxorubicin (0.5-1 μM) which alone is non-toxic to AR 1.0 cells. Incubations with doxorubicin were over a four day period before quantitation of proliferation using the calorimetric sulphorhodamine B assay (Skehan et al; J. Natl. Cancer Inst. 82 pp 1107-1112 (1990)).
Cells were cultured for four days with concentrations of doxorubicin over the range of 0.5 nM-50 μM in the presence of Verapramil at its maximum subtoxic level determined from previous experiments. Proliferation was quantified as described by Skehan et al, loc cit. The IC50 (concentration required to reduce proliferation to 50% of the untreated controls) for doxorubicin alone and with the Verapamil were derived and used to calculate the potentiation index (PI): […]

[4] abbreviates: Mus musculus, compound alone, read-out: COMPOUND TOXICITY (IC50 μM).
[5] abbreviates: cytotoxic agent (doxorubicin) 1.00 μg/ml, 5760 min, read-out: TOXICITY WITH CYTOTOXIC AGENT (IC 50 μM).
The mark [6] stands for this setting: cytotoxic agent (doxorubicin) 0.50 μg/ml, 5760 min, read-out: TOXICITY WITH CYTOTOXIC AGENT (IC 50 μM).
The mark [7] stands for this setting: compound alone, read-out: COMPOUND TOXICITY (IC50 μM).

Where a name gives a salt, the structure may show the parent alone.

For the compound `COc1ccc(/C=c2/c(=O)[nH]/c(=C\c3ccoc3)c(=O)n2C)cc1` [Compound 1563, (3Z,6Z)-3-(3-Furyl)methylene-6-(4-methoxybenzylidene)-1-methyl-2,5-piperazinedione], the Emax with AR 1.0 cells [1] (Mus musculus, 1 hr) was 32.9%.

With `COc1ccc(/C=c2/c(=O)[nH]/c(=C\c3cccs3)c(=O)n2C)cc1` [Compound 1564, (3Z,6Z)-6-(4-Methoxybenzylidene)-1-methyl-3-(2-thienylmethylene)-2,5-piperazinedione], the Emax with AR 1.0 cells [1] (Mus musculus, 1 hr) came to 46.3%.

As to `COc1ccc(/C=c2/c(=O)[nH]/c(=C\c3cn(C(=O)OC(C)(C)C)c4ccccc34)c(=O)n2C)cc1` [Compound 1565, (3Z,6Z)-6-(4-Methoxybenzylidene)-1-methyl-3-(1-tert-butoxycarbonyl-3-indolyl)methylene-2,5-piperazinedione], the Emax in the data set on AR 1.0 cells [1] (Mus musculus, 1 hr) is 37.3%.

For `Cn1c(=O)/c(=C/c2ccccc2)[nH]c(=O)/c1=C/c1cccs1` [Compound 1569, (3Z,6Z)-3-Benzylidene-1-methyl-6-(2-thienylmethylene)-2,5-piperazinedione], the Emax in the data set on AR 1.0 cells [1] (Mus musculus, 1 hr) is 46%.

In the case of `COc1ccc(/C=c2\[nH]c(=O)/c(=C/c3ccoc3)n(C)c2=O)cc1` [Compound 1596], the Emax in the data set with AR 1.0 cells [1] (Mus musculus, 1 hr) was 47.7%.

Take `COc1ccc(/C=c2\[nH]c(=O)/c(=C/c3cccs3)n(C)c2=O)cc1` [Compound 1597, (3Z,6Z)-3-(4-Methoxybenzylidene)-1-methyl-6-(2-thienylmethylene)-2,5-piperazinedione]: the Emax in the data set on AR 1.0 cells [1] (Mus musculus, 1 hr) turned out to be 59.1%. The IC50 with AR 1.0 cells [1] (Mus musculus, 1 h) is 50 µM; in the data set on AR 1.0 cells [2] (setting [4]), 25 µM; with AR 1.0 cells [2] (setting [5]) it was 6 µM.

On to `Cn1c(=O)/c(=C/c2ccccc2)[nH]c(=O)/c1=C/c1ccsc1` [Compound 1641, (3Z,6Z)-3-Benzylidene-1-methyl-6-(3-thienylmethylene)-2,5-piperazinedione], for which the Emax with AR 1.0 cells [1] (Mus musculus, 1 hr) came to 50.5%.

For the compound `COc1ccc(/C=c2/c(=O)n(C)/c(=C\C=Cc3ccccc3)c(=O)n2C)cc1` [Compound 1777, (3Z,6Z)-3-Cinnamylidene-6-(4-methoxybenzylidene)-1,4-dimethyl-2,5-piperazinedione], in the data set on AR 1.0 cells [1] (Mus musculus, 1 hr), the Emax came out at 50%. This compound also showed an IC50 with AR 1.0 cells [1] (Mus musculus, 1 h) of 80 µM.

As to `Cn1c(=O)/c(=C/c2cn(C(=O)OC(C)(C)C)c3ccccc23)n(C)c(=O)/c1=C/c1ccccc1` [Compound 1800, (3Z,6Z)-3-Benzylidene-1,4-dimethyl-6-(1-tert-butoxycarbonyl-3-indolyl)methylene-2,5-piperazinedione], the “Potentiation Index (at 5 μM)” value in the data set with AR 1.0 cells [3] came to 40. The IC50 with AR 1.0 cells [1] (Mus musculus, 1 h) turned out to be 7 µM; in the data set with AR 1.0 cells [2] (setting [4]), 10 µM; with AR 1.0 cells [2] (setting [5]) it was 0.8 µM.

As to `Cn1c(=O)/c(=C/c2cn(C(=O)OC(C)(C)C)c3ccccc23)n(C)c(=O)/c1=C/c1cccs1` [Compound 1834, (3Z,6Z)-1,4-Dimethyl-3-(1-tert-butoxycarbonyl-3-indolyl)methylene-6-(2-thenylidene)-2,5-piperazinedione], in the data set on AR 1.0 cells [3], the “Potentiation Index” value stood at 30. The IC50 with AR 1.0 cells [1] (Mus musculus, 1 h) came to 5 µM; in the data set with AR 1.0 cells [2] (setting [4]), 10 µM; with AR 1.0 cells [2] (setting [6]) it was 0.8 µM.

Take `O=c1[nH]/c(=C\c2ccncc2)c(=O)n(Cc2ccccc2)/c1=C\c1ccccc1` [Compound 1839, (3Z,6Z)-1-Benzyl-6-benzylidene-3-(4-pyridyl)methylene-2,5-piperazinedione]: in the data set with AR 1.0 cells [3], the “Potentiation Index” value was found to be 15. Also, the IC50 in the data set with AR 1.0 cells [1] (Mus musculus, 1 h) came out at 20 µM; with AR 1.0 cells [2] (setting [7]), 30 µM; in the data set on AR 1.0 cells [2] (setting [6]), 1.5 µM.

For the compound `O=c1[nH]/c(=C\c2ccncc2)c(=O)n(Cc2ccccc2)/c1=C\c1ccccc1` [Compound 1840, (3Z,6Z)-1-Benzyl-6-benzylidene-3-(4-pyridyl)methylene-2,5-hydrochloride], the IC50 was found to be 12 µM with AR 1.0 cells [1] (1 hr), 5 µM in the data set with AR 1.0 cells [2] (setting [7]) and 1 µM in the data set on AR 1.0 cells [2] (setting [6]).

With `Cn1c(=O)/c(=C/c2cn(C(=O)OC(C)(C)C)c3ccccc23)n(C)c(=O)/c1=C/c1c(Cl)cccc1Cl` [Compound 1873, (3Z,6Z)-6-(2,6-dichlorobenzylidene)-3-(1-tertbutoxycarbonyl-3-indolyl)methylene-1,4-dimethyl-2,5-piperazinedione], the Emax with AR 1.0 cells [1] (Mus musculus, 1 hr) stood at 56%. Moreover, the IC50 in the data set on AR 1.0 cells [1] (Mus musculus, 1 h) is 5 µM; with AR 1.0 cells [2] (setting [4]), 8 µM.

For `COc1ccc(/C=c2/c(=O)n(Cc3ccccc3)/c(=C\c3cn(C(=O)OC(C)(C)C)c4ccccc34)c(=O)n2C)cc1` [Compound 1874, (3Z,6Z)-4-benzyl-3-(1-tertbutoxycarbonyl-3-indolyl)methylene-6-(4-methoxybenzylidene)-1-methyl-2,5-piperazinedione], the “Potentiation Index (at 5 μM)” value in the data set on AR 1.0 cells [3] turned out to be 20. The IC50 with AR 1.0 cells [1] (Mus musculus, 1 h) amounted to 10 µM.

Take `Cn1c(=O)/c(=C/c2cn(C(=O)OC(C)(C)C)c3ccccc23)n(C)c(=O)/c1=C/c1ccoc1` [Compound 1875, (3Z,6Z)-6-(3-furylmethylene)-6-(1-tertbutoxycarbonyl-3-indolyl)methylene-1,4-dimethyl-2,5-piperazinedione]: the IC50 in the data set on AR 1.0 cells [1] (Mus musculus, 1 h) is 5 µM; in the data set on AR 1.0 cells [2] (setting [4]), 10 µM; in the data set on AR 1.0 cells [2] (setting [6]), 0.8 µM.

For `Cn1c(=O)/c(=C/c2ccccc2[N+](=O)[O-])n(C)c(=O)/c1=C/c1cccs1` [Compound 1877, (3Z,6Z)-1,4-dimethyl-6-(2-nitrobenzylidene)-3-(2-thienylmethylene)-2,5-piperazinedione], in the data set on AR 1.0 cells [1] (Mus musculus, 1 h), the IC50 stood at 20 µM.

As for `COc1ccc(/C=c2/c(=O)n(Cc3ccccc3)/c(=C\c3ccoc3)c(=O)n2C)cc1` [Compound 1880, (3Z,6Z)-4-Benzyl-3-(3-furylmethylene)-6-(4-methoxybenzylidene)-1-methyl-2,5-piperazinedione], the IC50 with AR 1.0 cells [1] (Mus musculus, 1 h) came to 7 µM; in the data set with AR 1.0 cells [2] (setting [4]) it was 10 µM.

For the compound `Cn1c(=O)/c(=C/c2cn(C(=O)OC(C)(C)C)c3ccccc23)nc(OCCCN2C(=O)c3ccccc3C2=O)/c1=C/c1ccccc1` [Compound 1895, (3Z,6Z)-6-Benzylidene-1-methyl-5-(3-phthalimidopropoxy)-3-(l-tert-butoxycarbonyl-3-indolyl)methylene-3,6-dihydro-2-pyrazinone], the Emax in the data set on AR 1.0 cells [1] (Mus musculus, 1 hr) came to 12%.

As to `Cn1c(=O)/c(=C/c2c[nH]c3ccccc23)n(C)c(=O)/c1=C/c1ccccc1` [Compound 1896, (3Z,6Z)-3-Benzylidene-6-(3-indoly)methylene-1,4-dimethyl-2,5-piperazinedione], the IC50 in the data set with AR 1.0 cells [1] (Mus musculus, 1 h) turned out to be 12 µM; with AR 1.0 cells [2] (setting [4]) it was 30 µM; in the data set with AR 1.0 cells [2] (setting [6]) it was 4 µM.

Compound `Cn1c(=O)/c(=C/c2ccccc2)n(CCCN2C(=O)CCC2=O)c(=O)/c1=C/c1ccccc1` [Compound 1932, (3Z,6Z)-3,6-Dibenzylidene-4-methyl-1-(3-succinimidopropyl)-2,5-piperazinedione] gave an IC50 with AR 1.0 cells [1] (Mus musculus, 1 h) of 10 µM.

Compound `Cn1c(=O)/c(=C/c2ccccc2)nc(OCCCN2C(=O)CCC2=O)/c1=C/c1ccccc1` [Compound 1934, (3Z,6Z)-3,6-Dibenzylidene-1-methyl-5-(3-succinmidopropoxy)-3,6-dihydro-2-pyrazinone] yielded an IC50 with AR 1.0 cells [1] (Mus musculus, 1 h) of 1 µM.

Regarding `Cn1c(=O)/c(=C/c2ccccc2)nc(OCCCN2C(=O)C(=O)c3ccccc32)/c1=C/c1ccccc1` [Compound 1935, (3Z,6Z)-3,6-Dibenzylidene-5-(2,3-dioxo-1-indolinyl)propoxy-1-methyl-3,6-dihydro-2-pyrazinone], the IC50 in the data set on AR 1.0 cells [1] (Mus musculus, 1 h) was 6 µM.

As to `COc1cccc2c1C(=O)c1c(O)c3c(c(O)c1C2=O)C[C@@](O)(C(=O)CO)C[C@@H]3O[C@H]1C[C@H](N)[C@H](O)[C@H](C)O1` [doxorubicin, reference compound], in the data set with AR 1.0 cells [2] (0.5-1 μM, alone), the “toxicity of doxorubicin alone to AR 1.0 cells” value is “non-toxic”.

With “(3Z,6Z)-3-Benzylidene-6-(2-furyl)-1,4-dimethyl-2,5-piperazinedione [Compound 1799]”, the “MAX accumulation (% 100 μm VRP)” value with AR 1.0 cells [1] (1 hr) is 40.0%.

For the compound “(3Z,6Z)-6-Benzylidene-1-methyl-3-(1-tert-butoxycarbonyl-3-(l-tert-butoxycarbonyl-3-indolyl)methylene-2,5-piperazinedione [Compound 1894]”, the “MAX accumulation (% 100 μm VRP)” value with AR 1.0 cells [1] (1 hr) was 36.0%.

For “(3Z,6Z)-6-Benzylidene-3-furylidene-1,4-dimethyl-2,5-piperazinedione [Compound 1836]”, in the data set with AR 1.0 cells [1] (1 hr), the “MAX accumulation (% 100 μm VRP)” value amounted to 14.0%.
